# Columns and labels:
# [1] = biological target: T1, Ubiquitin carboxyl-terminal hydrolase 7 (Homo sapiens, UniProt Q93009); assay: Inhibition of USP7 in multiple myeloma cells (unknown origin) by immunohistochemistry; type: cell-based
# [2] = biological target: T1, Ubiquitin carboxyl-terminal hydrolase 7; assay: Inhibition of USP7 (unknown origin) by Ub-AMC assay
# [3] = biological target: T2, Ubiquitin carboxyl-terminal hydrolase 1 (Homo sapiens, UniProt O94782); assay: Inhibition of USP1 (unknown origin) by Ub-AMC assay
# T2 sequence (O94782 whole entry): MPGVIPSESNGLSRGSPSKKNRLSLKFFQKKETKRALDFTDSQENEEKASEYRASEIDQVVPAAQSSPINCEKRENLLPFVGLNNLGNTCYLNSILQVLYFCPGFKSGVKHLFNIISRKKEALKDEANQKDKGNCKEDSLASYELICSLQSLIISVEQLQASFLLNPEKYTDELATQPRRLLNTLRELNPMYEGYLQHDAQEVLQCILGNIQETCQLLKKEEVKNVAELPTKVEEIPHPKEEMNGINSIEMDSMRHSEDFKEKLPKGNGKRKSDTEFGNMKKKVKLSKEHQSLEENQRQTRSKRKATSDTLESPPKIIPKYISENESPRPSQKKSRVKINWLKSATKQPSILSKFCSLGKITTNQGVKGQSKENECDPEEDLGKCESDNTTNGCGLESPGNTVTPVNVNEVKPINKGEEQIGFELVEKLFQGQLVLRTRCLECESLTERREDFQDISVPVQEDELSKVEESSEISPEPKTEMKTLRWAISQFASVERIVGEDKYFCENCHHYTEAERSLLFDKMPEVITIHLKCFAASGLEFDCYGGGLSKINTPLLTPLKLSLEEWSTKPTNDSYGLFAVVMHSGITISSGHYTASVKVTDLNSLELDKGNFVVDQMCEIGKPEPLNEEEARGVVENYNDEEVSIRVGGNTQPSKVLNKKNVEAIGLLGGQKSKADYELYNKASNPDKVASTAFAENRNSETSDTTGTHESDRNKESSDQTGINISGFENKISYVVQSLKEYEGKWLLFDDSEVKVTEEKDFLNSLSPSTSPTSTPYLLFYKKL
# [4] = biological target: T1, Ubiquitin carboxyl-terminal hydrolase 7; assay: Inhibition of USP7 (unknown origin) by Ub-CHOP reporter assay
# [5] = biological target: Ubiquitin carboxyl-terminal hydrolase 10 (Homo sapiens, UniProt Q14694); assay: Inhibition of USP10 (unknown origin) by Ub-AMC assay
# Chain of Ubiquitin carboxyl-terminal hydrolase 10 (Q14694 whole entry): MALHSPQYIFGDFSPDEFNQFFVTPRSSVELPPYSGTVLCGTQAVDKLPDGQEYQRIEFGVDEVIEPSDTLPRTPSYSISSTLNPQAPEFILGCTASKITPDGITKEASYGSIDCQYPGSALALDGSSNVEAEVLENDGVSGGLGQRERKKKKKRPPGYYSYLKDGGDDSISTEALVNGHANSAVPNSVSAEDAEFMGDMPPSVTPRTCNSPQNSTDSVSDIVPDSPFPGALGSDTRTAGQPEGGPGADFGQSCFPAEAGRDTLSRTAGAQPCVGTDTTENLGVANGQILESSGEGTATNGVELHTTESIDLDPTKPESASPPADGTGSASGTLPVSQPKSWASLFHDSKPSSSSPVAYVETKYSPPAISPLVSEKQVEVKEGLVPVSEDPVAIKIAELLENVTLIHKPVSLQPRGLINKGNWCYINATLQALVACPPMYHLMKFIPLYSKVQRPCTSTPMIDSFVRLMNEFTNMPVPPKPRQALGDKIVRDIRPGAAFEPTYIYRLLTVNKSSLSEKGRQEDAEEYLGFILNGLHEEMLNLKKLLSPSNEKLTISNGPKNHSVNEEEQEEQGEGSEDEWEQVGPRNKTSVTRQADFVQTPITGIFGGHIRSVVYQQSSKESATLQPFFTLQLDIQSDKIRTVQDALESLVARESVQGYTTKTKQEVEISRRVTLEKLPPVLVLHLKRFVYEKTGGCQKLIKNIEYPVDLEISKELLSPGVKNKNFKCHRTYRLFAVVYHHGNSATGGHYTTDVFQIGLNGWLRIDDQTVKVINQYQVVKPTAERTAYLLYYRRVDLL
# [6] = biological target: T3, Ubiquitin carboxyl-terminal hydrolase 13 (Homo sapiens, UniProt Q92995); assay: Inhibition of USP13 (unknown origin) by Ub-AMC assay
# T3 sequence (Q92995 whole entry): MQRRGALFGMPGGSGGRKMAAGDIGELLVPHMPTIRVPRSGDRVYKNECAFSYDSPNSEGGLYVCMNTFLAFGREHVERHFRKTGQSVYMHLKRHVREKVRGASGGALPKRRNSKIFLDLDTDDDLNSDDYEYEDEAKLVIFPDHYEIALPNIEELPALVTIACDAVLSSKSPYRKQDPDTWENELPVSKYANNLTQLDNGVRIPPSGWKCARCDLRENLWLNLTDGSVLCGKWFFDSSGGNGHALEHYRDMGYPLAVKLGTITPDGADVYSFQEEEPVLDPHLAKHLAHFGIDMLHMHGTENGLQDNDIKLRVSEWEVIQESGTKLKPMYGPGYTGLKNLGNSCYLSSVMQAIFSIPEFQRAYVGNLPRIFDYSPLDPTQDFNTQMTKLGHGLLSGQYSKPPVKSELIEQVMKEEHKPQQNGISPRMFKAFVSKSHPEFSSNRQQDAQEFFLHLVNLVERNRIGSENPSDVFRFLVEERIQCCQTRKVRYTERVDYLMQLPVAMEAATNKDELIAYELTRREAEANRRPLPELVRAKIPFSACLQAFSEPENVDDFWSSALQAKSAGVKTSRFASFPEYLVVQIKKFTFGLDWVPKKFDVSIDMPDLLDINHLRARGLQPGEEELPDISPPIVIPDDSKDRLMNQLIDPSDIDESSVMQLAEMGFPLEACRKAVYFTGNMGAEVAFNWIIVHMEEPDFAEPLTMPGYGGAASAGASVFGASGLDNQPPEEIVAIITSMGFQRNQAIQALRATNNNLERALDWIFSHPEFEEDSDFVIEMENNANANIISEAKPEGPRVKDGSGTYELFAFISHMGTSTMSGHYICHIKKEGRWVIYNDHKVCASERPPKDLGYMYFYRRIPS
# [7] = Steady state intracellular drug concentration after 1 hr by LC-MS and UV spectroscopy by cell based assay
# T1 sequence (Q93009 whole entry): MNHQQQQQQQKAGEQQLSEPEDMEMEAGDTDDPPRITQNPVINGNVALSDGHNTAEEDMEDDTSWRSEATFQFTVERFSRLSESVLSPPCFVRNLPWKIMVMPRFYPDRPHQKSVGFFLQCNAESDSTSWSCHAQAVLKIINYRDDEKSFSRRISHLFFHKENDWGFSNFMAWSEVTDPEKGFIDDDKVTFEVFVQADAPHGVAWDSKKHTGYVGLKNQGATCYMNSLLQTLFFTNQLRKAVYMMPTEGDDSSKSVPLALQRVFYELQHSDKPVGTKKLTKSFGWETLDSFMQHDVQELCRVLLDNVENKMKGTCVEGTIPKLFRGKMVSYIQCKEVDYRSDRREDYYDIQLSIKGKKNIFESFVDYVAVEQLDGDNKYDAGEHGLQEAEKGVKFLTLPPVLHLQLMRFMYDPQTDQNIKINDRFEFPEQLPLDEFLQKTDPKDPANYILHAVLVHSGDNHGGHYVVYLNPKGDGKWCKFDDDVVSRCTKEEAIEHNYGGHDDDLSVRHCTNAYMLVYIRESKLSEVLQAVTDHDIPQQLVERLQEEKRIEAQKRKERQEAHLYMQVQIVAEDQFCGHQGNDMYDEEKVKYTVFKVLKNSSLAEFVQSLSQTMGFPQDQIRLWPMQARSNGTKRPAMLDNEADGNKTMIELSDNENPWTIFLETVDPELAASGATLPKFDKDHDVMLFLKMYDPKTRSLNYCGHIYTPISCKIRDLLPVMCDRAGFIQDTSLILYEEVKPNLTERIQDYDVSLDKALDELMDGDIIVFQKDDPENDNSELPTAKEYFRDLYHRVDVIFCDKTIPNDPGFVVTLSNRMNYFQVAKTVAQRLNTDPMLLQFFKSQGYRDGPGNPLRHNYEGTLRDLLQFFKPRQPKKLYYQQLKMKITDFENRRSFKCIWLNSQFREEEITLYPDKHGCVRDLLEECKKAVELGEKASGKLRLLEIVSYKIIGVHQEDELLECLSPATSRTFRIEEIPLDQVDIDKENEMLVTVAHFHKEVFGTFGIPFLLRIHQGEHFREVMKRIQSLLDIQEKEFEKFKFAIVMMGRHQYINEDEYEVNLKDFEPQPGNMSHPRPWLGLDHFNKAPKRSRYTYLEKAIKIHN
smiles,measurement,setting,value
O=[N+]([O-])c1cc(CCO)sc1Sc1cccc(Cl)c1Cl,EC50,[1],20100 nM
N#Cc1nc2c(nc1C#N)-c1cc(Cl)ccc1C2=O,IC50,[2],420 nM
O=C1c2ccccc2C(=O)c2oc(-c3ccccc3)nc21,IC50,[3],544 nM
CC(=O)c1cc([N+](=O)[O-])c(Sc2cccc(Cl)c2Cl)s1,EC50,[4],8000 nM
Fc1ccc(CNc2ncnc3ccc(F)cc23)cc1,IC50,[5],600 nM
same,IC50,[6],600 nM
Cc1cc(C(=O)CN2CCCC2)c(C)n1-c1ccc(F)cc1,Drug uptake,[7],13 µM
